Measured values from ChEMBL document CHEMBL4000185, “Pyrimidine-Based Inhibitors of Dynamin I GTPase Activity: Competitive Inhibition at the Pleckstrin Homology Domain” (J Med Chem, 2017).
Calls of active or inactive are those of the source. The rule behind the calls is not given here.

Tested on: not listed separately
Test: Inhibition of phosphatidyl serine liposome-stimulated sheep brain dynamin 1 GTPase activity assessed as reduction orthophosphate release using GTP as substrate after 30 mins by malachite green reagent based colorimetric assay
Set-up: species or system Ovis aries
Conditions: not given
With `CCCCCCCCCCCCCCNc1nc(C)cc(NCCN(C)C)n1` the IC50 was “Not Active”.

Same assay, conditions: read-out: IC50
In the case of `CCCCCCCCCCCCNc1cc(C)nc(Cl)n1`, the IC50 is reported as 32.5 µM. For `CCCCCCCCCCNc1ccnc(NCCN(C)C)n1`, the IC50 was 2.9 µM. Work on `CCCCCCCCCCCCNc1cc(C)nc(NCCC)n1` yielded an IC50 of 61.8 µM. Work on `CCCCCCCCCCCCNc1cc(C)nc(NCCCN(C)C)n1` yielded an IC50 of 49 µM. In the case of `CCCCCCCCCCNc1cc(NCCN(C)C)ncn1`, the IC50 is reported as 5.1 µM. In the case of `CCCCCCNc1nc(C)cc(NCCN(C)C)n1`, the IC50 is reported as 5.8 µM. For `CCC(C)Nc1nc(C)cc(NCCN(C)C)n1` (stereo unspecified), the IC50 was over 50 µM. For `CCCCCCCCCCCCNc1ccnc(NCCN(C)C)n1`, the IC50 was 1.8 µM. Compound `Cc1cc(NCCN(C)C)nc(NC2CCCCC2)n1` has an IC50 of 3.8 µM. Compound `CCCCCCCCCCCCNc1nc(C)cc(NCCCN(C)C)n1` has an IC50 of 37.7 µM. Compound `CCCCCCCCCCCCNc1cc(C)nc(NCCN(C)C)n1` has an IC50 of 1.1 µM. `CCCCCCCCCCCCNc1nccc(NCCN(C)C)n1` showed an IC50 of 2 µM. With `Cc1cc(NC2CCCCC2)nc(NCCN(C)C)n1` the IC50 was 20.6 µM. Work on `CCCCCCCCCCCCNc1nc(C)cc(NCCO)n1` yielded an IC50 of 5.5 µM. Compound `CCCCCCCCCCCCNc1cc(C)nc(NCCO)n1` has an IC50 of 4.6 µM. Compound `Cc1cc(NCc2ccccc2)nc(NCCN(C)C)n1` has an IC50 of over 50 µM. Compound `CCCCCCCCCCN(CCCCCCCCCC)c1nc(C)cc(CCN(C)C)n1` has an IC50 of 5.2 µM. `CCCCCCCCCCNc1cc(C)nc(NCCN(C)C)n1` showed an IC50 of 3.8 µM. For `CCCCCCCCCCCCNc1cc(C)nc(N(C)C)n1`, the IC50 was 14 µM. `CCCN(CC1CC1)c1cc(C)nc(NCCN(C)C)n1` gave an IC50 of 52 µM. Compound `CCCCCCCCCCCCNc1nc(C)cc(NCCC)n1` has an IC50 of 4.7 µM. `CCCCCCCCNc1cc(C)nc(NCCN(C)C)n1` showed an IC50 of 1.6 µM. `Cc1cc(NCCN(C)C)nc(NCc2ccccc2)n1` gave an IC50 of over 50 µM. `CCCCCCCCCCCCNc1cc(NCCN(C)C)ncn1` gave an IC50 of 7.7 µM. `CCCCCCCCCCCCNc1nc(C)cc(N(C)C)n1` gave an IC50 of 3.3 µM. Compound `CCCCCCCCCCN(CCCCCCCCCC)c1cc(C)nc(NCCN(C)C)n1` has an IC50 of 7.5 µM. Work on `CCCCCCCCNc1nc(C)cc(NCCN(C)C)n1` yielded an IC50 of 2.5 µM. Compound `CCCCCCCCCCCCCCCCCCNc1nc(C)cc(NCCN(C)C)n1` has an IC50 of 4.4 µM. Work on `CCCCCCCCCCCCCCNc1cc(C)nc(NCCN(C)C)n1` yielded an IC50 of 3.2 µM. Compound `CCCCCCCCCCNc1nccc(NCCN(C)C)n1` has an IC50 of 44.9 µM. `CCCCCCCCCCCCNc1nc(C)cc(NCCN)n1` gave an IC50 of 18.6 µM. `CCCN(CC1CC1)c1nc(C)cc(NCCN(C)C)n1` showed an IC50 of 59.8 µM. In the case of `CCCCNc1cc(C)nc(NCCN(C)C)n1`, the IC50 is reported as over 50 µM. `CCCCCCNc1cc(C)nc(NCCN(C)C)n1` showed an IC50 of 10.6 µM. For `CCCCCCCCCCNc1nc(C)cc(NCCN(C)C)n1`, the IC50 was 9.3 µM. Work on `CCCCCCCCCCCCCCCCCCNc1cc(C)nc(NCCN(C)C)n1` yielded an IC50 of 8.4 µM. With `CCCCCCCCCCCCNc1cc(C)nc(NCCN)n1` the IC50 was 5.3 µM.

Species on record: Ovis aries
Test: Inhibition of phosphatidyl serine liposome-stimulated sheep brain dynamin 1 GTPase activity assessed as reduction orthophosphate release at 300 uM using GTP as substrate after 30 mins by malachite green reagent based colorimetric assay relative to control
Conditions: not given
For `CCNc1cc(C)nc(NCCN(C)C)n1`, the inhibition was “inactive”. `CCC(C)Nc1nc(C)cc(NCCN(C)C)n1` (stereo unspecified) showed an inhibition of over 50%. `Cc1cc(NCc2ccccc2)nc(NCCN(C)C)n1` gave an inhibition of over 50%. In the case of `CCCNc1cc(C)nc(NCCN(C)C)n1`, the inhibition is reported as “inactive”. In the case of `CCCCNc1nc(C)cc(NCCN(C)C)n1`, the inhibition is reported as “inactive”. For `Cc1cc(NCCN(C)C)nc(NCc2ccccc2)n1`, the inhibition was over 50%. For `CCNc1nc(C)cc(NCCN(C)C)n1`, the inhibition was “inactive”. With `CCCNc1nc(C)cc(NCCN(C)C)n1` the inhibition was “inactive”. In the case of `CCCCNc1cc(C)nc(NCCN(C)C)n1`, the inhibition is reported as over 50%. For `CCC(C)Nc1cc(C)nc(NCCN(C)C)n1` (stereo unspecified), the inhibition was “inactive”.

Species on record: Ovis aries
Test: Inhibition of phosphatidyl serine liposome-stimulated sheep brain dynamin 1 GTPase activity assessed as reduction orthophosphate release up to 300 uM using GTP as substrate after 30 mins by malachite green reagent based colorimetric assay relative to control
Conditions: not given
For `CCCCNc1nc(C)cc(Cl)n1`, the inhibition was “inactive”. In the case of `CCC(C)Nc1nc(C)cc(Cl)n1` (stereo unspecified), the inhibition is reported as “inactive”. With `Cc1cc(N(C)C)nc(Cl)n1` the inhibition was “inactive”. With `Cc1cc(Cl)nc(NC2CCCCC2)n1` the inhibition was “inactive”. In the case of `CCNc1cc(C)nc(Cl)n1`, the inhibition is reported as “inactive”. With `CCC(C)Nc1cc(C)nc(Cl)n1` (stereo unspecified) the inhibition was “inactive”. With `CCCCCCCCCCCCCCNc1cc(C)nc(Cl)n1` the inhibition was “inactive”. For `Cc1cc(NC2CCCCC2)nc(Cl)n1`, the inhibition was “inactive”. In the case of `Cc1cc(Cl)nc(NCc2ccccc2)n1`, the inhibition is reported as “inactive”. In the case of `CCNc1nc(C)cc(Cl)n1`, the inhibition is reported as “inactive”. With `CCCNc1nc(C)cc(Cl)n1` the inhibition was “inactive”. In the case of `CCCNc1cc(C)nc(Cl)n1`, the inhibition is reported as “inactive”. In the case of `Cc1cc(Cl)nc(N2CCN(C)CC2)n1`, the inhibition is reported as “inactive”. In the case of `Cc1cc(NCc2ccccc2)nc(Cl)n1`, the inhibition is reported as “inactive”. In the case of `CCCCCCCCCCCCCCNc1nc(C)cc(Cl)n1`, the inhibition is reported as “inactive”. In the case of `Cc1cc(NCCCN(C)C)nc(Cl)n1`, the inhibition is reported as “inactive”. For `COc1ccc(CNc2cc(C)nc(Cl)n2)cc1`, the inhibition was “inactive”. In the case of `Cc1cc(Cl)nc(NCCCN(C)C)n1`, the inhibition is reported as “inactive”. For `CCCCCCNc1nc(C)cc(Cl)n1`, the inhibition was “inactive”. With `CCCN(CC1CC1)c1cc(C)nc(Cl)n1` the inhibition was “inactive”. With `Cc1cc(Cl)nc(NCCN)n1` the inhibition was “inactive”. With `CCCCCCNc1cc(C)nc(Cl)n1` the inhibition was “inactive”. For `Cc1cc(N2CCN(C)CC2)nc(Cl)n1`, the inhibition was “inactive”. With `Cc1cc(NCCN)nc(Cl)n1` the inhibition was “inactive”. In the case of `CCCN(CC1CC1)c1nc(C)cc(Cl)n1`, the inhibition is reported as “inactive”. With `CCCCCCCCNc1nc(C)cc(Cl)n1` the inhibition was “inactive”. For `CCCCCCCCNc1cc(C)nc(Cl)n1`, the inhibition was “inactive”. In the case of `Cc1cc(Cl)nc(N(C)C)n1`, the inhibition is reported as “inactive”. In the case of `COc1ccc(CNc2nc(C)cc(Cl)n2)cc1`, the inhibition is reported as “inactive”. For `CCCCCCCCCCNc1cc(C)nc(Cl)n1`, the inhibition was “inactive”. For `Cc1cc(Cl)nc(NCCNC(=O)OC(C)(C)C)n1`, the inhibition was “inactive”. In the case of `CCCCNc1cc(C)nc(Cl)n1`, the inhibition is reported as “inactive”. In the case of `Cc1cc(NCCNC(=O)OC(C)(C)C)nc(Cl)n1`, the inhibition is reported as “inactive”.
